Drawing on ChEMBL document CHEMBL3045773, “Synthesis and structureactivity relationship of acylthiourea derivatives as inhibitors of microsomal epoxide hydrolase” (Med Chem Res, 2012), this text covers IC50 for 31 compounds.

Molecules are shown by their SMILES.

The target in the assay is T1, Epoxide hydrolase 1 (Homo sapiens, UniProt P07099).
T1 sequence (P07099 whole entry): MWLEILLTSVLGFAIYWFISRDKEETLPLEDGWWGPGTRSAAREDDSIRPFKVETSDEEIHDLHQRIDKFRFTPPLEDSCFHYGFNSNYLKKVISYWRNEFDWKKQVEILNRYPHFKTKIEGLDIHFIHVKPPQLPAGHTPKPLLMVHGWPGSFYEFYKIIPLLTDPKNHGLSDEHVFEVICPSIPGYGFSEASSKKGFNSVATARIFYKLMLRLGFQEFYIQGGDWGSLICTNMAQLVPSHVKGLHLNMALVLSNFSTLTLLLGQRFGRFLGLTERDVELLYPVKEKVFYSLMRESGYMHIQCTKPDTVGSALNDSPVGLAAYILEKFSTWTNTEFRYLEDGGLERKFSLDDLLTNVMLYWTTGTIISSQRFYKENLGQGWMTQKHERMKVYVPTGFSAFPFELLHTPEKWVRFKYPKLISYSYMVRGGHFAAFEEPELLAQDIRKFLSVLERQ
Description: Inhibition of microsomal epoxide hydrolase (unknown origin) using 7-(2-(Oxiran-2-yl)ethoxy) Resorufin by fluorometric method.

`O=C(NC(=S)Nc1ccc(Cl)cc1)c1ccccc1`: the IC50 was found to be 1640 nM.

Compound `COc1cc([N+](=O)[O-])ccc1NC(=S)NC(=O)c1ccccc1` came in with an IC50 of 1650 nM.

Take `CC(=O)NC(=S)NC12CC3CC(CC(C3)C1)C2`: the IC50 stood at 1120 nM.

In turn, `CC(=O)NC(=S)Nc1ccc(Cl)cc1` registered an IC50 of 2210 nM.

Regarding `CC(=O)NC(=S)NC(C)(C)C`, the concentration for half-maximal inhibition (IC50) is 2700 nM.

`CC(=O)NC(=S)Nc1ccc(Br)c2ccccc12` had an IC50 of 2420 nM.

On to `CCOc1ccc(OCC)c(NC(=S)NC(=O)c2ccccc2)c1`, for which half-maximal inhibition (IC50) required 2040 nM.

`O=C(NC(=S)Nc1ccc(Br)c(C(F)(F)F)c1)c1ccccc1` returned an IC50 of 1170 nM.

For `CC(=O)NC(=S)Nc1ccc(Oc2ccccc2)cc1`, the IC50 is 3700 nM. This IC50 lies about 3.2-fold higher than the previous one.

On to `CC(=O)NC(=S)Nc1ccc(Br)cc1`, for which the IC50 came to 1640 nM.

As to `CC(=O)NC(=S)Nc1ccc(N2CCOCC2)cc1`, the IC50 amounted to 2590 nM.

`COc1cc([N+](=O)[O-])ccc1NC(=S)NC(C)=O` displayed an IC50 of 1870 nM.

The compound `O=C(NC(=S)Nc1ccc(Br)cc1)c1ccccc1` displayed a 50% inhibitory concentration (IC50) of 3440 nM.

Compound `O=C(NC(=S)Nc1ccncc1)c1ccccc1` showed an IC50 of 2280 nM.

Take `CCOc1ccc(OCC)c(NC(=S)NC(C)=O)c1`: the midpoint of inhibition, the IC50, lay at 2530 nM. The IC50 values of the last two compounds are within 1.5-fold of each other.

For the compound `CC(=O)NC(=S)Nc1ccccc1` [N-(PHENYLCARBAMOTHIOYL)ACETAMIDE], the IC50 amounted to 2350 nM.

`O=C(Nc1ccccc1)Nc1ccccc1`: the IC50 amounted to 1200 nM.

`CC(=O)NC(=S)Nc1cc(Cl)ccc1Cl` showed an IC50 of 2290 nM.

As to `O=C(NC(=S)Nc1ccc(N2CCOCC2)cc1)c1ccccc1`, half-maximal inhibition (IC50) was put at 1720 nM. The IC50 values of the last two compounds are within 1.5-fold of each other.

`CC(=O)NC(=S)Nc1ccccc1C` displayed an IC50 of 1500 nM. This IC50 and that of the compound before are within 1.5-fold of each other.

The compound `O=C(NC(=S)Nc1ccccc1)c1ccccc1` [N-(PHENYLCARBAMOTHIOYL)BENZAMIDE] returned an IC50 of 1290 nM.

The compound `COc1cc(C)ccc1NC(=S)NC(C)=O` had an IC50 of 1690 nM.

`Cc1ccccc1NC(=S)NC(=O)c1ccccc1` returned an IC50 of 3540 nM.

`O=C(NC(=S)Nc1ccc(Br)c2ccccc12)c1ccccc1` yielded an IC50 of 1880 nM.

As to `CC(=O)NC(=S)Nc1ccncc1`, the IC50 amounted to 2070 nM.

`CC(=O)NC(=S)Nc1ccc(Br)c(C(F)(F)F)c1`: the midpoint of inhibition, the IC50, lay at 1390 nM.

On to `COc1cc(C)ccc1NC(=S)NC(=O)c1ccccc1`, for which 2540 nM corresponded to half-maximal inhibition (IC50).

Take `O=C(NC(=S)Nc1ccc(Oc2ccccc2)cc1)c1ccccc1`: the midpoint of inhibition, the IC50, lay at 2100 nM.

The compound `CC(C)(C)NC(=S)NC(=O)c1ccccc1` came in with an IC50 of 1580 nM.

As for `O=C(NC(=S)NC12CC3CC(CC(C3)C1)C2)c1ccccc1`, half-maximal inhibition (IC50) was put at 1010 nM.

As for `O=C(NC(=S)Nc1cc(Cl)ccc1Cl)c1ccccc1`, the IC50 stood at 2150 nM.
